In ChEMBL document CHEMBL1132134, “The LMC delta opioid recognition pharmacophore: comparison of SNC80 and oxymorphindole” (Bioorg Med Chem Lett, 1999):

What was measured:
[1] = target: Delta-type opioid receptor (Rattus norvegicus, UniProt P33533); experiment: Binding affinity evaluated by inhibition of binding of [3H]DADLE to delta opioid receptor of rat brain
[2] = target: Opioid receptors; mu & delta (Rattus norvegicus) (UniProt P33533+P33535); experiment: Selectivity ratio against mu opioid receptor to that of delta opioid receptor; format: protein assay
Sequence of Opioid receptors; mu & delta (Rattus norvegicus) (P33533 whole entry, looked up): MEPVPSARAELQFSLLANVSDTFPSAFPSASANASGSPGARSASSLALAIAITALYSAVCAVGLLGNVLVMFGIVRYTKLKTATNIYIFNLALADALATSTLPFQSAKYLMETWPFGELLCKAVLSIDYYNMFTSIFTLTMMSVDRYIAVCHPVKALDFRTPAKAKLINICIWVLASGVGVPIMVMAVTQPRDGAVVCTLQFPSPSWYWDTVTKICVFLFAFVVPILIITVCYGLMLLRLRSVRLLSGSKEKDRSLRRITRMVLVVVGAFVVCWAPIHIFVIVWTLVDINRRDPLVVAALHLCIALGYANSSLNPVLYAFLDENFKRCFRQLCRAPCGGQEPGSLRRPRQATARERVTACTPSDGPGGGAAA
Sequence of Opioid receptors; mu & delta (Rattus norvegicus) (P33535 whole entry, looked up): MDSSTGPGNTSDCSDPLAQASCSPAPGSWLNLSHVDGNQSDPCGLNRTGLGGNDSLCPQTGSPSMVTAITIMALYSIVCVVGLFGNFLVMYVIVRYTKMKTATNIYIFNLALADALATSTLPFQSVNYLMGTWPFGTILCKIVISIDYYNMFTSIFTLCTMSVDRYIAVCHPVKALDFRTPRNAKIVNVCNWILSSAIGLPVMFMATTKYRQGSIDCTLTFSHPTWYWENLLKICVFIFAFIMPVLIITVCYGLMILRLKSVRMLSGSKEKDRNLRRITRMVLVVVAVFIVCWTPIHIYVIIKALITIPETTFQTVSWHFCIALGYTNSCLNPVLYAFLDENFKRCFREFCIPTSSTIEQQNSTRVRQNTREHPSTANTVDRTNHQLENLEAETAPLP

Sequence of Delta-type opioid receptor (P33533 whole entry): as the sequence (P33533 whole entry, looked up) above

| Compound | Ki [1] | Selectivity [2] |
| --- | --- | --- |
| O=C1/C(=C/c2ccccc2)C[C@@]2(O)[C@H]3Cc4ccc(O)c5c4[C@@]2(CCN3CC2CC2)[C@H]1O5 [BNTX] | 6.2 nM | 4 |
| O=C1/C(=C/c2c3ccccc3cc3ccccc23)C[C@@]2(O)C3Cc4ccc(O)c5c4C2(CCN3CC2CC2)C1O5 (stereo not given in full) | 17 nM | 6.4 |
| O=C1/C(=C\c2ccccc2)C[C@@]2(O)[C@H]3Cc4ccc(O)c5c4[C@@]2(CCN3CC2CC2)[C@H]1O5 | 3.7 nM | 8.6 |
| O=C1/C(=C/c2ccc(-c3ccccc3)cc2)C[C@@]2(O)C3Cc4ccc(O)c5c4C2(CCN3CC2CC2)C1O5 (stereo not given in full) | 75 nM | 0.6 |
| O=C1/C(=C\c2ccc3ccccc3c2)C[C@@]2(O)C3Cc4ccc(O)c5c4C2(CCN3CC2CC2)C1O5 (stereo not given in full) | 16 nM | 3 |
| O=C1/C(=C/c2ccc3ccccc3c2)C[C@@]2(O)C3Cc4ccc(O)c5c4C2(CCN3CC2CC2)C1O5 (stereo not given in full) | 39 nM | 0.6 |
| O=C1/C(=C/c2cccc3ccccc23)C[C@@]2(O)C3Cc4ccc(O)c5c4C2(CCN3CC2CC2)C1O5 (stereo not given in full) | 4.6 nM | 7.5 |
| O=C1/C(=C\c2ccc(-c3ccccc3)cc2)C[C@@]2(O)C3Cc4ccc(O)c5c4C2(CCN3CC2CC2)C1O5 (stereo not given in full) | 47 nM | 4.2 |
| O=C1/C(=C\c2cccc3ccccc23)C[C@@]2(O)C3Cc4ccc(O)c5c4C2(CCN3CC2CC2)C1O5 (stereo not given in full) | 0.7 nM | 15 |
| O=C1/C(=C\c2c3ccccc3cc3ccccc23)C[C@@]2(O)C3Cc4ccc(O)c5c4C2(CCN3CC2CC2)C1O5 (stereo not given in full) | 2.4 nM | 14 |
